The assay concerns subgenomic HCV Replicon in HuH-7 cells. The assay can be described thus: Assay for Inhibition of HCV RNA Replication (Replicon assay). In kind it is cell-based, Hepatitis C Virus. The procedure:
A. Assay for Inhibition of HCV RNA Replication:
The compounds of the present invention are evaluated for their ability to affect the replication of Hepatitis C Virus RNA in cultured hepatoma (HuH-7) cells containing a subgenomic HCV Replicon. The details of the assay are described below. This Replicon assay is a modification of that described in V. Lohmann, F. Korner, J-O. Koch, U. Herian, L. Theilmann, and R. Bartenschlager, “Replication of a Sub-genomic Hepatitis C Virus RNAs in a Hepatoma Cell Line,” Science 285:110 (1999).
The assay is an in situ Ribonuclease protection, Scintillation Proximity based-plate assay (SPA). 10,000-40,000 cells are plated in 100-200 μL of media containing 0.8 mg/mL G418 in 96-well cytostar plates (Amersham). Compounds are added to cells at various concentrations up to 100 μM in 1% DMSO at time 0 to 18 h and then cultured for 24-96 h. Cells are fixed (20 min, 10% formalin), permeabilized (20 min, 0.25% Triton X-100/PBS) and hybridized (overnight, 50° C.) with a single-stranded ^33P RNA probe complementary to the (+) strand NS5B (or other genes) contained in the RNA viral genome. Cells are washed, treated with RNAse, washed, heated to 65° C. and counted in a Top-Count. Inhibition of replication is read as a decrease in counts per minute (cpm).
Human HuH-7 hepatoma cells, which are selected to contain a subgenomic replicon, carry a cytoplasmic RNA consisting of an HCV 5′ non-translated region (NTR), a neomycin selectable marker, an EMCV IRES (internal ribosome entry site), and HCV non-structural proteins NS3 through NS5B, followed by the 3′ NTR.
On the technique in general: In antiviral work, replicon cells carry a viral genome segment that copies itself.

The mark [1] stands for this setting: Hepatitis C virus, Huh-7, read-out: Replicon Assay EC50.
[2] abbreviates: Hepatitis C virus, HuH-7 cells containing a subgenomic HCV Replicon, read-out: Replicon Assay EC50.
Setting [3] is: HuH-7 cells containing a subgenomic HCV Replicon, read-out: Replicon Assay EC50.

The record followed here is patent US8148349B2, “Nucleoside cyclic phosphoramidates for the treatment of RNA-dependent RNA viral infection” (Istituto di Ricerche di Biologia Molecolare P. Angeletti …, priority 2006, dated 2012).

Read-outs that look alike come from different tables or passages of the source.

As for `CCCCOC(=O)[C@H](C)NP1(=O)OC[C@H]2O[C@@H](n3ccc(N)nc3=O)[C@](C)(O)[C@@H]2O1` (single isomer, unassigned) [Example 1], the EC50 (commonly the concentration that produces a half-maximal response) under setting [1] turned out to be 15 µM.
As for `CCOC(=O)[C@H](C)NP1(=O)OC[C@H]2O[C@@H](n3ccc(N)nc3=O)[C@](C)(O)[C@@H]2O1` (single isomer, unassigned) [Example 2], the EC50 under setting [1] was found to be 4 µM.
On to `CCCCCCCOC(=O)[C@H](C)NP1(=O)OC[C@H]2O[C@@H](n3ccc(N)nc3=O)[C@](C)(O)[C@@H]2O1` (single isomer, unassigned) [Example 3], for which the EC50 under setting [2] amounted to 5 µM.
For the compound `C[C@H](NP1(=O)OC[C@H]2O[C@@H](n3ccc(N)nc3=O)[C@](C)(O)[C@@H]2O1)C(=O)OC(C)(C)C` (stereo partly drawn) [Example 4, tert-butyl N-[(4aR,6R,7R,7aR)-6-(4-amino-2-oxopyrimidin-1(2H)-yl)-7-hydroxy-7-methyl-2-oxidotetrahydro-4H-furo[3,2d][1,3,2]dioxaphosphinin-2-yl]-L-alaninate], the EC50 under setting [1] was over 20 µM.
Regarding `CCCCOC(=O)[C@H](C)NP1(=O)OC[C@H]2O[C@@H](n3ccc(N)nc3=O)[C@](C)(O)[C@@H]2O1` (stereo partly drawn) [Example 5, n-butyl N-[(4aR,6R,7R,7aR)-6-(4-amino-2-oxopyrimidin-1(2H)-yl)-7-hydroxy-7-methyl-2-oxidotetrahydro-4H-furo[3,2d][1,3,2]dioxaphosphinin-2-yl]-L-alaninate], the EC50 under setting [1] stood at 15 µM.
The same measure, in the same setting: under `CCOC(=O)[C@H](CC)NP1(=O)OC[C@H]2O[C@@H](n3ccc(N)nc3=O)[C@](C)(O)[C@@H]2O1` (stereo partly drawn) [Example 6, ethyl (2S)-2-{[(4aR,6R,7R,7aR)-6-(4-amino-2-oxopyrimidin-1(2H)-yl)-7-hydroxy-7-methyl-2-oxidotetrahydro-4H-furo[3,2d][1,3,2]dioxaphosphinin-2-yl]amino}butanoate] stands 6 µM.
For the compound `CCOC(=O)[C@H](CC(C)C)NP1(=O)OC[C@H]2O[C@@H](n3ccc(N)nc3=O)[C@](C)(O)[C@@H]2O1` (stereo partly drawn) [Example 7, ethyl N-[(4aR,6R,7R,7aR)-6-(4-amino-2-oxopyrimidin-1(2H)-yl)-7-hydroxy-7-methyl-2-oxidotetrahydro-4H-furo[3,2-d][1,3,2]dioxaphosphinin-2-yl]-L-leucinate], the EC50 under setting [2] was determined as 50 µM.
In the case of `CCC[C@H](NP1(=O)OC[C@H]2O[C@@H](n3ccc(N)nc3=O)[C@](C)(O)[C@@H]2O1)C(=O)OCC` (stereo partly drawn) [Example 8, ethyl N-[(4aR,6R,7R,7aR)-6-(4-amino-2-oxopyrimidin-1(2H)-yl)-7-hydroxy-7-methyl-2-oxidotetrahydro-4H-furo[3,2-d][1,3,2]dioxaphosphinin-2-yl]-L-norvalinate], under setting [1], the EC50 is over 20 µM.
In the case of `C[C@H](NP1(=O)OC[C@H]2O[C@@H](n3ccc(N)nc3=O)[C@](C)(O)[C@@H]2O1)C(=O)OC1CCCC1` (stereo partly drawn) [Example 9, cyclopentyl N-[(4aR,6R,7R,7aR)-6-(4-amino-2-oxopyrimidin-1(2H)-yl)-7-hydroxy-7-methyl-2-oxidotetrahydro-4H-furo[3,2d][1,3,2]-dioxaphosphinin-2-yl]-L-alaninate], the EC50 under setting [2] was over 20 µM.
Regarding `CCOC(=O)[C@H](C)NP1(=O)OC[C@H]2O[C@@H](n3ccc(N)nc3=O)[C@](C)(O)[C@@H]2O1` (stereo partly drawn) [Example 10, ethyl N-[(4aR,6R,7R,7aR)-6-(4-amino-2-oxopyrimidin-1(2H)-yl)-7-hydroxy-7-methyl-2oxidotetrahydro-4H-furo[3,2-d][1,3,2]-dioxaphosphinin-2-yl]-L-alaninate], the EC50 under setting [1] was 4 µM.
Regarding `CCCCCCCOC(=O)[C@H](C)NP1(=O)OC[C@H]2O[C@@H](n3ccc(N)nc3=O)[C@](C)(O)[C@@H]2O1` (stereo partly drawn) [Example 11, n-heptyl N-[(4aR,6R,7R,7aR)-6-(4-amino-2-oxopyrimidin-1(2H)-yl)-7-hydroxy-7-methyl-2oxidotetrahydro-4Hfuro[3,2d][1,3,2]-dioxaphosphinin-2-yl]-L-alaninate], the EC50 under setting [2] stood at 10 µM.
Consider `C[C@H](NP1(=O)OC[C@H]2O[C@@H](n3ccc(N)nc3=O)[C@](C)(O)[C@@H]2O1)C(=O)OC1CCCCC1` (stereo partly drawn) [Example 12, cyclohexyl N-[(4aR,6R,7R,7aR)-6-(4-amino-2-oxopyrimidin-1(2H)-yl)-7-hydroxy-7-methyl-2oxidotetrahydro-4Hfuro[3,2d][1,3,2]dioxaphosphinin-2-yl]-L-alaninate], for which the concentration giving a half-maximal response (EC50) under setting [2] is over 20 µM.
Consider `CC(C)CCOC(=O)[C@H](C)NP1(=O)OC[C@H]2O[C@@H](n3ccc(N)nc3=O)[C@](C)(O)[C@@H]2O1` (stereo partly drawn) [Example 13, isopentyl N-[(4aR,6R,7R,7aR)-6-(4-amino-2-oxopyrimidin-1(2H)-yl)-7-hydroxy-7-methyl-2-oxidotetrahydro-4H-furo[3,2d][1,3,2]-dioxaphosphinin-2-yl]-L-alaninate], for which the EC50 under setting [2] is over 20 µM.
Regarding `COCCCOC(=O)[C@H](C)NP1(=O)OC[C@H]2O[C@@H](n3ccc(N)nc3=O)[C@](C)(O)[C@@H]2O1` (stereo partly drawn) [Example 14, 3-methoxypropyl N[(4aR,6R,7R,7aR)-6-(4-amino-2-oxopyrimidin-1(2H)-yl)-7-hydroxy-7-methyl-2-oxidotetrahydro-4H-furo[3,2-d][1,3,2]dioxaphosphinin-2-yl]-L-alaninate], the EC50 under setting [3] amounted to 28 µM.
Take `CCC(CC)COC(=O)[C@H](C)NP1(=O)OC[C@H]2O[C@@H](n3ccc(N)nc3=O)[C@](C)(O)[C@@H]2O1` (stereo partly drawn) [Example 15, 2-ethylbutyl N-[(4aR,6R,7R,7aR)-6-(4-amino-2-oxopyrimidin-1(2H)-yl)-7-hydroxy-7-methyl-2-oxidotetrahydro-4H-furo[3,2-d][1,3,2]dioxaphosphinin-2-yl]-L-alaninate]: the EC50 under setting [2] is over 20 µM.
On to `CCCC(CCC)COC(=O)[C@H](C)NP1(=O)OC[C@H]2O[C@@H](n3ccc(N)nc3=O)[C@](C)(O)[C@@H]2O1` (stereo partly drawn) [Example 16, 2-propylpentyl N-[(4aR,6R,7R,7aR)-6-(4-amino-2-oxopyrimidin-1(2H)-yl)-7-hydroxy-7-methyl-2-oxidotetrahydro-4H-furo[3,2-d][1,3,2]dioxaphosphinin-2-yl]-L-alaninate], for which, under setting [2], the EC50 was 14 µM.
For the compound `CCCCCCOCCOC(=O)[C@H](C)NP1(=O)OC[C@H]2O[C@@H](n3ccc(N)nc3=O)[C@](C)(O)[C@@H]2O1` (stereo partly drawn) [Example 17, 2-(hexyloxy)ethyl N-[(4aR,6R,7R,7aR)-6-(4-amino-2-oxopyrimidin-1(2H)-yl)-7-hydroxy-7-methyl-2-oxidotetrahydro-4H-furo[3,2-d][1,3,2]dioxaphosphinin-2-yl]-L-alaninate], the EC50 under setting [2] was determined as 15 µM.
On to `C[C@H](NP1(=O)OC[C@H]2O[C@@H](n3ccc(N)nc3=O)[C@](C)(O)[C@@H]2O1)C(=O)OC1CCCCCC1` (stereo partly drawn) [Example 18, cycloheptyl N-[(4aR,6R,7R,7aR)-6-(4-amino-2-oxopyrimidin-1(2H)-yl)-7-hydroxy-7-methyl-2-oxidotetrahydro-4H-furo[3,2-d][1,3,2]dioxaphosphinin-2-yl]-L-alaninate], for which, under setting [2], the EC50 was over 10 µM.
For `C[C@H](NP1(=O)OC[C@H]2O[C@@H](n3ccc(N)nc3=O)[C@](C)(O)[C@@H]2O1)C(=O)OCCCC1CCCCC1` (stereo partly drawn) [Example 19, 3-cyclohexylpropyl N-[(4aR,6R,7R,7aR)-6-(4-amino-2-oxopyrimidin-1(2H)-yl)-7-hydroxy-7-methyl-2-oxidotetrahydro-4H-furo[3,2-d][1,3,2]dioxaphosphinin-2-yl]-L-alaninate], the EC50 under setting [2] worked out at 10 µM.
With `CCCC(CCC)C(=O)Nc1ccn([C@@H]2O[C@@H]3COP(=O)(N[C@@H](CC)C(=O)OCC)O[C@H]3[C@@]2(C)O)c(=O)n1` (stereo partly drawn) [Example 20, Ethyl (2S)-2-({(4aR,6R,7R,7aR)-7-hydroxy-7-methyl-2-oxido-6-[2-oxo-4-[(2-propylpentanoyl)amino]pyrimidin-1(2H)-yl]tetrahydro-4H-furo[3,2-d][1,3,2]dioxaphosphinin-2-yl}amino)butanoate], the EC50 under setting [2] is over 20 µM.
Consider `CCCC(CCC)C(=O)Nc1ccn([C@@H]2O[C@@H]3COP(=O)(N[C@@H](C)C(=O)OCC)O[C@H]3[C@@]2(C)O)c(=O)n1` (stereo partly drawn) [Example 21, ethyl N-{(4aR,6R,7R,7aR)-7-hydroxy-7-methyl-2-oxido-6-[2-oxo-4-[(2-propylpentanoyl)amino]pyrimidin-1(2H)-yl]tetrahydro-4H-furo[3,2-d][1,3,2]dioxaphosphinin-2-yl}-L-alaninate], for which, under setting [2], the EC50 is over 20 µM.
Turning to `CCCCCCCOC(=O)[C@H](C)NP1(=O)OC[C@H]2O[C@@H](n3ccc(NC(=O)OCCCN(C)C)nc3=O)[C@](C)(O)[C@@H]2O1` (stereo partly drawn) [Example 23, n-heptyl N-{(4aR,6R,7R,7aR)-6-[4-({[3-(dimethylamino)propoxy]carbonyl}amino)-2-oxopyrimidin-1(2H)-yl]-7-hydroxy-7-methyl-2-oxidotetrahydro-4H-furo[3,2-d][1,3,2]dioxaphosphinin-2-yl}-L-alaninate], the EC50 under setting [2] is over 20 µM.
As to “n-heptyl N-{(4aR,6R,7R,7aR)-7-hydroxy-7-methyl-6-[4-[(1-methylene-2-propylpentyl)amino]-2-oxopyrimidin-1(2H)-yl]-2-oxidotetrahydro-4H-furo[3,2-d][1,3,2]dioxaphosphinin-2-yl}-L-alaninate [Example 22]”, the EC50 under setting [3] amounted to 12 µM.
